Experimental data reported in ChEMBL document CHEMBL3885881, “DrugMatrix”.

Organism: Rattus norvegicus
Experiment: DrugMatrix - Regimen: Daily Repeat
Assay type: toxicity, organism-based, Sprague-Dawley
Design: regimen Daily Repeat, gender Male, age 6-8 weeks
Details: in vivo, po, 75 mg/kg, route oral GAVAGE, dose level Low, vehicle .5 % CMC; for ABSOLUTE BASOPHIL / ABSOLUTE EOSINOPHIL / ABSOLUTE LYMPHOCYTE / ABSOLUTE MONOCYTE / ABSOLUTE SEGMENTED NEUTROPHIL / BASOPHIL / EOSINOPHIL / ERYTHROCYTE COUNT / HEMATOCRIT / HEMOGLOBIN / LEUKOCYTE COUNT / LYMPHOCYTE / MEAN CORPUSCULAR HEMOGLOBIN / MEAN CORPUSCULAR HEMOGLOBIN CONCENTRATION / MEAN CORPUSCULAR VOLUME / MONOCYTE / NEUTROPHIL / NUCLEATED RED BLOOD CELLS / PLATELET COUNT: tissue Blood; for ALANINE AMINOTRANSFERASE / ALBUMIN / ALKALINE PHOSPHATASE / ASPARTATE AMINOTRANSFERASE / BLOOD UREA NITROGEN / CARBON DIOXIDE / CHLORIDE / CHOLESTEROL / CREATINE PHOSPHOKINASE / CREATININE / GLUCOSE / LACTATE DEHYDROGENASE / LIPASE / PHOSPHORUS / POTASSIUM / SODIUM / TOTAL BILIRUBIN / TOTAL PROTEIN / URIC ACID: tissue Plasma

CC(=O)OC[C@H]1O[C@@H](n2ncc(=O)[nH]c2=O)[C@H](OC(C)=O)[C@@H]1OC(C)=O [AZARIBINE]
ABSOLUTE BASOPHIL (72 h, time 3 day): 0 CELLS/uL | ABSOLUTE EOSINOPHIL (72 h, time 3 day): 0 CELLS/uL | ABSOLUTE LYMPHOCYTE (72 h, time 3 day): 12537.67 CELLS/uL | ABSOLUTE MONOCYTE (72 h, time 3 day): 196 CELLS/uL | ABSOLUTE SEGMENTED NEUTROPHIL (72 h, time 3 day): 1699.67 CELLS/uL | BASOPHIL (72 h, time 3 day): 0% | EOSINOPHIL (72 h, time 3 day): 0% | ERYTHROCYTE COUNT (72 h, time 3 day): 5.31 x10E6/uL | HEMATOCRIT (72 h, time 3 day): 32.6% | HEMOGLOBIN (72 h, time 3 day): 12.37 G/DL | LEUKOCYTE COUNT (72 h, time 3 day): 14.43 x10E3/uL | LYMPHOCYTE (72 h, time 3 day): 87% | MEAN CORPUSCULAR HEMOGLOBIN (72 h, time 3 day): 23.3 pg | MEAN CORPUSCULAR HEMOGLOBIN CONCENTRATION (72 h, time 3 day): 37.93 G/DL | MEAN CORPUSCULAR VOLUME (72 h, time 3 day): 61.4 fL | MONOCYTE (72 h, time 3 day): 1.33% | NEUTROPHIL (72 h, time 3 day): 11.67% | NUCLEATED RED BLOOD CELLS (72 h, time 3 day): 0 /100WBC | PLATELET COUNT (72 h, time 3 day): 1235.33 x10E3/uL | ALANINE AMINOTRANSFERASE (72 h, time 3 day): 37 u/L | ALBUMIN (72 h, time 3 day): 4.13 G/DL | ALKALINE PHOSPHATASE (72 h, time 3 day): 384.67 u/L | ASPARTATE AMINOTRANSFERASE (72 h, time 3 day): 74.67 u/L | BLOOD UREA NITROGEN (72 h, time 3 day): 16.33 mg/dL | CARBON DIOXIDE (72 h, time 3 day): 24.33 mmol/L | CHLORIDE (72 h, time 3 day): 100.67 MEQ/L | CHOLESTEROL (72 h, time 3 day): 73 mg/dL | CREATINE PHOSPHOKINASE (72 h, time 3 day): 254.33 u/L | CREATININE (72 h, time 3 day): 0.25 mg/dL | GLUCOSE (72 h, time 3 day): 157.67 mg/dL | LACTATE DEHYDROGENASE (72 h, time 3 day): 151 u/L | LIPASE (72 h, time 3 day): 10.33 u/L | PHOSPHORUS (72 h, time 3 day): 12.53 mg/dL | POTASSIUM (72 h, time 3 day): 5.81 MEQ/L | SODIUM (72 h, time 3 day): 141.13 MEQ/L | TOTAL BILIRUBIN (72 h, time 3 day): 0.17 mg/dL | TOTAL PROTEIN (72 h, time 3 day): 6.2 G/DL | URIC ACID (72 h, time 3 day): 1.1 mg/dL | ABSOLUTE BASOPHIL (120 h, time 5 day): 0 CELLS/uL | ABSOLUTE EOSINOPHIL (120 h, time 5 day): 42.67 CELLS/uL | ABSOLUTE LYMPHOCYTE (120 h, time 5 day): 10939.33 CELLS/uL | ABSOLUTE MONOCYTE (120 h, time 5 day): 627 CELLS/uL | ABSOLUTE SEGMENTED NEUTROPHIL (120 h, time 5 day): 1691 CELLS/uL | BASOPHIL (120 h, time 5 day): 0% | EOSINOPHIL (120 h, time 5 day): 0.33% | ERYTHROCYTE COUNT (120 h, time 5 day): 5.34 x10E6/uL | HEMATOCRIT (120 h, time 5 day): 32.93% | HEMOGLOBIN (120 h, time 5 day): 12.57 G/DL | LEUKOCYTE COUNT (120 h, time 5 day): 13.3 x10E3/uL | LYMPHOCYTE (120 h, time 5 day): 82.33% | MEAN CORPUSCULAR HEMOGLOBIN (120 h, time 5 day): 23.53 pg | MEAN CORPUSCULAR HEMOGLOBIN CONCENTRATION (120 h, time 5 day): 38.17 G/DL | MEAN CORPUSCULAR VOLUME (120 h, time 5 day): 61.67 fL | MONOCYTE (120 h, time 5 day): 4.67% | NEUTROPHIL (120 h, time 5 day): 12.67% | NUCLEATED RED BLOOD CELLS (120 h, time 5 day): 0 /100WBC | PLATELET COUNT (120 h, time 5 day): 932 x10E3/uL | ALANINE AMINOTRANSFERASE (120 h, time 5 day): 43.33 u/L | ALBUMIN (120 h, time 5 day): 3.93 G/DL | ALKALINE PHOSPHATASE (120 h, time 5 day): 273 u/L | ASPARTATE AMINOTRANSFERASE (120 h, time 5 day): 76 u/L | BLOOD UREA NITROGEN (120 h, time 5 day): 16.67 mg/dL | CARBON DIOXIDE (120 h, time 5 day): 33 mmol/L | CHLORIDE (120 h, time 5 day): 95.33 MEQ/L | CHOLESTEROL (120 h, time 5 day): 74 mg/dL | CREATINE PHOSPHOKINASE (120 h, time 5 day): 309 u/L | CREATININE (120 h, time 5 day): 0.2 mg/dL | GLUCOSE (120 h, time 5 day): 150 mg/dL | LACTATE DEHYDROGENASE (120 h, time 5 day): 226 u/L | LIPASE (120 h, time 5 day): 10.33 u/L | PHOSPHORUS (120 h, time 5 day): 12.03 mg/dL | POTASSIUM (120 h, time 5 day): 6.04 MEQ/L | SODIUM (120 h, time 5 day): 140.6 MEQ/L | TOTAL BILIRUBIN (120 h, time 5 day): 0.1 mg/dL | TOTAL PROTEIN (120 h, time 5 day): 5.93 G/DL | URIC ACID (120 h, time 5 day): 1.33 mg/dL
